Assay results: article PMC12691611, “Aromatic residue Trp146 mediates dynamic interplay between type IVa pili and exopolysaccharide in social motility of Myxococcus xanthus” (mBio, 2025)
Entries after “also recorded” stand apart in the source; their conditions may differ.

Experiments:
PilACt-W181A = molecular target: T1, PilACt-W181A (Myxococcus xanthus, UniProt Q59589, W181A); test: SPR, carbohydrates over immobilized PilACt-W181A; assay type: binding
T1 construct: a truncated variant (PilACt) spanning residues 32–208; His tag; made in house; host or cells: E. coli BL21 (DE3)
T1 sequence (Q59589 44-220 W181A): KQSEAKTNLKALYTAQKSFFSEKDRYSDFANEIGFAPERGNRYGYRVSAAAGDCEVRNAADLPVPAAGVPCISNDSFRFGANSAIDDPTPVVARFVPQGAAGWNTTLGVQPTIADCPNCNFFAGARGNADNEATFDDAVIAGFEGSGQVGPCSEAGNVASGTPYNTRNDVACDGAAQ
Description: (§1) To functionally validate the role of W146, a W146A substitution mutant (PilA-W146A) was generated through AlphaFold2-based structural modeling of PilA (Fig. 4A). Structural alignment confirmed the mutant retained a tertiary structure indistinguishable from wild-type PilA (WT PilA; Fig. 4B), indicating the W146A substitution caused no global structural perturbations. […] However, the mutation induced localized instability, manifested by premature GlcN dissociation (4 ns) and excessive ligand RMSD fluctuations (>6 nm; Fig. 4C and D; Movie S4). […] To quantify binding effects, a single-residue PilACt variant (PilACt-W146A) was analyzed for EPS/GlcN affinity. […] To assess broader aromatic residue contributions, four additional PilA aromatic residues (Y69, W181, F164, and F186) were individually substituted with alanine. The PilACt-F164A mutant underwent intracellular degradation, likely due to structural instability, precluding heterologous expression.
(§2) The binding affinity of carbohydrates to PilACt and its mutants was determined by SPR measurements at 25°C using Biacore T200 (Cytiva, USA) in PBS buffer. […]
(§3) Fig S11. […] The binding affinity of single-residue variants PilACt-Y69A, PilACt-W181A, and PilACt-F186A to S-EPS (A) and GlcN (B) was evaluated by SPR analysis. Representative sensorgram and calculated KD values are shown. […]

PilACt-F186A = molecular target: T2, PilACt-F186A (Myxococcus xanthus, UniProt Q59589, F186A); test: SPR, carbohydrates over immobilized PilACt-F186A; assay type: binding
T2 construct: a truncated variant (PilACt) spanning residues 32–208; His tag; made in house; host or cells: E. coli (BL21 (DE3) is named only for the other PilACt variants)
T2 sequence (Q59589 44-220 F186A): as the sequence (Q59589 44-220 W181A) above, with A138W, F143A counted along it
Description: as §1, §2, §3

M. xanthus DK1622 cells = system: M. xanthus DK1622 cells; design: method as in PMID 12704238; conditions: DK1622 cells ref 15; cited from earlier work
[1] = amine group of GlcN; no reference given; cited from earlier work
PilACt-Y69A = molecular target: T3, PilACt-Y69A (Myxococcus xanthus, UniProt Q59589, Y69A); test: SPR, carbohydrates over immobilized PilACt-Y69A; assay type: binding
T3 construct: a truncated variant (PilACt) spanning residues 32–208; His tag; made in house; host or cells: E. coli BL21 (DE3)
T3 sequence (Q59589 44-220 Y69A): as the sequence (Q59589 44-220 W181A) above, with Y26A, A138W counted along it
Description: as §1, §2, §3

PilACt-W146A = molecular target: T4, PilACt-W146A (Myxococcus xanthus, UniProt Q59589, W146A); test: SPR, carbohydrates over immobilized PilACt-W146A; assay type: binding; conditions: 25°C, PBS
T4 construct: a truncated variant (PilACt) spanning residues 32–208; His tag; made in house; host or cells: E. coli BL21 (DE3)
T4 sequence (Q59589 44-220 W146A): as the sequence (Q59589 44-220 W181A) above, with W103A, A138W counted along it
Description: as §1
The binding affinity of carbohydrates to PilACt and its mutants was determined by SPR measurements at 25°C using Biacore T200 (Cytiva, USA) in PBS buffer. The purified PilACt or its mutants (10 µg/mL in 10 mM sodium acetate, pH 4.5) were immobilized on the CM5 chips (Cytiva, USA) via amine coupling. Unreacted sites were blocked with 1.0 M ethanolamine-HCl (pH 8.5). Flow path 1 or path 3 was used as an activated blank control for subtraction. […]

PilACt = molecular target: T5, PilACt (Myxococcus xanthus, UniProt Q59589); test: Isothermal titration calorimetry (ITC), carbohydrates titrated into PilACt; assay type: binding
T5 construct: a truncated variant (PilACt) spanning residues 32–208; His tag; made in house; host or cells: E. coli BL21 (DE3)
T5 sequence (Q59589 44-220): as the sequence (Q59589 44-220 W181A) above, with A138W counted along it
Experimental: (§4) ITC power compensation analyses ([50]) confirmed negligible enthalpy changes during titrations, ruling out nonspecific binding events (Fig. S3B and S4B). […] Given the presence of ManNAc in M. xanthus EPS, we further analyzed its deacetylated derivative, mannosamine (ManN).
The calorimetric data for the binding of PilACt and its mutants to carbohydrates were measured at 25°C using a MicroCal PEAQ-ITC system (Malvern Instruments, United Kingdom). The carbohydrates, PilACt, and its mutants were dissolved in the PBS buffer. A 300 µL aliquot of protein solution was placed in the sample cell, followed by 19 sequential 2 µL injections of carbohydrates from a syringe stock solution into the sample cell. The injection interval was 150 s, and the agitation speed was set at 750 rpm. A control titration, in which carbohydrates were injected into PBS buffer under the same conditions, was performed to measure the heat of mixing and dilutions, which was then subtracted from the titration results involving the protein. Raw data were imported into MicroCal PEAQ-ITC analysis software (Version 1.1.01262) and corrected by subtracting the equivalent dilution heats of control titration. Integration of the area under each, along with deduction of the heat of dilution, yielded a thermogram of the molecular interaction between carbohydrates and PilACt or its mutants.

[2] = molecular target: T6, PilACt (truncated PilA, residues 32–208) (Myxococcus xanthus, UniProt Q59589); test: Surface plasmon resonance (SPR, Biacore T200), carbohydrates over immobilized PilACt; assay type: binding; conditions: for Kd: KD (SPR, PilACt)
T6 construct: a truncated variant (PilACt) spanning residues 32–208; His tag; made in house; host or cells: E. coli BL21 (DE3)
T6 sequence (Q59589 44-220): as the sequence (Q59589 44-220 W181A) above, with A138W counted along it
Description: We therefore employed surface plasmon resonance (SPR) on a Biacore system to quantitatively evaluate EPS-PilA binding ([48]), using immobilized PilACt as the ligand. […] Due to the insoluble nature of I-EPS and the risk of clogging the microfluidic channels, it was excluded from further SPR analyses.
as §4
The binding affinity of carbohydrates to PilACt and its mutants was determined by SPR measurements at 25°C using Biacore T200 (Cytiva, USA) in PBS buffer. The purified PilACt or its mutants (10 µg/mL in 10 mM sodium acetate, pH 4.5) were immobilized on the CM5 chips (Cytiva, USA) via amine coupling. Unreacted sites were blocked with 1.0 M ethanolamine-HCl (pH 8.5). Flow path 1 or path 3 was used as an activated blank control for subtraction. In all interaction experiments, analytes were injected at a flow rate of 30 µL/min for 180 s, with gradient concentrations programmed from low to high. After injection, dissociation was allowed to occur with the buffer flow for 300 s to facilitate chip regeneration. The resulting curves were corrected and fitted to the steady-state model using Biacore evaluation software (version 3.0, Cytiva, USA) to determine the dissociation constant (KD) values.

[3] = Zeta potential measurement; assay type: physicochemical
Experimental: GlcN and PilACt were diluted in PBS buffer, and the solutions were adjusted to a suitable pH (6, 7.6, and 9) using either HCl or NaOH. The zeta (ζ) potential of GlcN (0.5 mg/mL) and PilACt (1 mg/mL) solutions was measured using UV-grade cuvettes with a Zetasizer NanoZS90 (Malvern Instruments, United Kingdom). For each measurement, 1 mL of the sample was injected into a folded capillary cell. All experiments were conducted in triplicate.

| SMILES | binding affinity relative to WT PilACt (SPR) (PilACt-W181A) | binding affinity relative to WT PilACt (SPR) (PilACt-F186A) | piliation phenotype (surface pili) (M. xanthus DK1622 cells) | pKa [1] | binding affinity relative to WT PilACt (SPR) (PilACt-Y69A) | binding to PilACt-W146A by SPR (PilACt-W146A) | Kd (PilACt) [µM] | stoichiometry n (ITC) (PilACt; 25°C, PBS, pH 7.6) | Kd ([2]; pH 9) [µM] | Kd ([2]; steady-state fit, 25°C, PBS buffer, pH 7.6) [µM] | zeta potential ([3]; pH 6, PBS) | zeta potential ([3]; pH 7.6, PBS) [mV] | binding to PilACt by ITC (PilACt; 25°C, PBS) | binding to PilACt by SPR ([2]; tested concentrations 31.25–1,000 µM) |
| --- | --- | --- | --- | --- | --- | --- | --- | --- | --- | --- | --- | --- | --- | --- |
| N[C@H]1C(O)O[C@H](CO)[C@@H](O)[C@@H]1O (stereo partly drawn) [GlcN, glucosamine] | indistinguishable from WT | indistinguishable from WT | hyperpiliation | ~ 7.58 | indistinguishable from WT | undetectable; also recorded: No binding | 300 | 1.47 | 87 | 203 | +2.43 mV | 1.09 | – | – |
| CC(=O)N[C@@H]1[C@@H](O)[C@H](O)[C@@H](CO)O[C@H]1O [GlcNAc, N-acetyl-glucosamine] | – | – | hyperpiliation | – | – | – | – | – | – | – | – | – | undetectable | undetectable |
